Experimental data published in patent US9364479B2, “Use of a receptor-type kinase modulator for treating polycystic kidney disease” (SYMPHONY EVOLUTION, INC., priority 2010, dated 2016).
Marks after values point to notes of the source that are not given here.

How the values were obtained:
[1] = tested on: panel of pharmacological targets, including receptors, transporters, and enzymes; assay: NovaScreen panel, overall statements; assay type: binding; settings: single in vitro concentration of 10 μM
[2] = target: T1, panel of pharmacological targets, including receptors, transporters, and enzymes; assay: NovaScreen panel, overall statements; assay type: binding; settings: muscarinic receptors, α2-adrenergic receptor and dopamine transporter
T1 construct: IC50 values; other: muscarinic receptors, α2-adrenergic receptor and dopamine transporter

[3] = target: T2, Monoamine Oxidase B, Peripheral (Rattus norvegicus, UniProt P19643); assay: NovaScreen assay; assay type: biochemical; settings: read-out: Inhibition, 10 μM XL-647
T2 construct: NovaScreen

[4] = tested on: ERK phosphorylation (H1975 cells); assay: Immunoblot analysis of H1975 cell lysates; assay type: cell-based, human
Experimental: (§1) For the H1975 immunoblot studies, 3×10^5 cells were plated in each well (12-well plate) and incubated for 16 h in complete RPMI 1640, rinsed with fetal bovine serum-free RPMI 1640, and incubated with serial dilutions of test compounds in fetal bovine serum-free medium for 2 h followed by stimulation with 100 ng/mL human recombinant EGF for 10 min. Whole-cell protein lysates were prepared as described above and centrifuged for 10 min at 13,000×g at 4° C. to remove any insoluble material. Total protein was determined using bicinchoninic acid reagent and an equal amount of protein was combined with LDS loading buffer (Invitrogen) according to the manufacturer's instructions. Proteins were separated by gel electrophoresis on 4% to 15% polyacrylamide gels, transferred to nitrocellulose membranes, and detected by immunoblotting. Antibody:antigen complexes were detected using chemiluminescence. The following antibodies from Cell Signaling Technology were used at a 1:1,000 dilution: anti-EGFR, anti-pEGFR^Tyr1068, anti-AKT, anti-pAKT^Ser473, anti-ERK, and anti-pERK^Thr202/Tyr204. The anti-β-actin primary antibody (Accurate Chemical and Scientific) was used at 1:10,000 and the horseradish peroxidase-coupled secondary antibodies were purchased from Jackson ImmunoResearch and used at 1:5,000.

[5] = tested on: AKT phosphorylation (H1975 cells); assay: Immunoblot analysis of H1975 cell lysates; assay type: cell-based, human
Experimental: as §1

Histamine, H1 = target: T3, Histamine, H1 (Homo sapiens, UniProt P35367); assay: NovaScreen assay; assay type: binding; settings: read-out: Inhibition, 10 μM XL-647
T3 construct: NovaScreen

[6] = target: T4, Cholecystokinin, CCK2 (CCKB) (Homo sapiens, UniProt P32239); assay: NovaScreen assay; assay type: binding; settings: read-out: Inhibition, 10 μM XL-647
T4 construct: NovaScreen

Opiate, Non-selective = assay: NovaScreen assay; assay type: binding
EGFR L861Q (pCMV/Lx-1) = EGFR L861Q (pCMV/Lx-1) (Homo sapiens, UniProt P00533, L861Q); assay: EGFR phosphorylation ELISA in transfected Lx-1 cells
Description: Lx-1 cells were used because they lack background EGFR activity. A clone corresponding to the longest EGFR isoform (Genbank accession no. NM_005228.3/NP_005219.2 #21-176, Upstate Biotechnology) was used as a template to produce two mutant EGFR genes (coding for L858R and L861Q) by site-directed mutagenesis. The WT and the two sequence-verified mutants were transferred to a COOH-terminal Flag-tagged retroviral cytomegalovirus promoter-driven mammalian expression vector. The two Tet-On expression vectors, EGFR WT (Tet-On) and EGFRvIII (Tet-On), which were COOH-terminally Flag tagged, were generously provided by Dr. Abhijit Guha (University of Toronto, Toronto, Ontario, Canada).
Transient transfections of Lx-1 cells were done using Lipofectamine 2000 (Invitrogen) according to the manufacturer's protocol. For transfections of the WT, L858R, and L861Q constructs, 1 μg plasmid DNA was used for each transfection (each well of a 12-well plate). […]
For the EGFR phosphorylation ELISA, Reacti-Bind streptavidin-coated plates (Pierce) were coated with 2 μg/mL biotin-conjugated anti-Flag antibody (Sigma). […] Horseradish peroxidase activity was determined by reading the plates in a Victor2 plate reader following addition of the ELISA Femto substrate.

[7] = human
[8] = tested on: Phospho ERK Thr203/Tyr204; assay: Immunohistochemical analysis of phosphorylation in H1975 xenografts; assay type: in vivo, mouse; settings: 14-day dosing
Experimental: For immunohistochemical analysis of H1975, MDA-MB-231 and other xenografts, tumors were excised after euthanasia and fixed in zinc fixative (BD Biosciences) for 48 h before being processed into paraffin blocks. Serial sections at 5 μm were obtained from the area of largest possible surface for each tumor and stained using standard methods. The following antibodies were used: Ki67 (SP6; Labvision), CD31 (MECA.32; BD Biosciences), pERK^Thr202/Tyr204 (phospho-p44/42 mitogen-activated protein kinase; Cell Signaling Technology), pAKT^Ser473 (Cell Signaling Technology), and pEGFR^Tyr1068 (Cell Signaling Technology). For immunofluorescent staining, sections were then incubated with Alexa 594-conjugated goat anti-rabbit secondary antibody (Invitrogen) and mounted in Fluorescent Mounting Medium (DAKO) containing 4′,6-diamidino-2-phenylindole (Molecular Probes) as a nuclear counterstain. Fluorescent staining was visualized using a Zeiss Axiolmager and digitally captured using a Zeiss high-resolution camera coupled to AxioVision image analysis software. Two to three nonoverlapping representative fields were captured at ×200 or ×400 magnification depending on histologic readout and quantified using the integrated morphometric analysis functions in Metamorph software (Universal Imaging Corp.). Apoptotic cells were detected using terminal deoxynucleotidyl transferase-mediated dUTP nick end labeling in situ cell death detection kit according to the manufacturer's instructions (Roche Diagnostics GmbH).
CD31-positive tumor vessels, Ki67-positive proliferating cells, and pERK staining in each tumor section were identified and quantified using the integrated morphometric analysis functions in the ACIS automatic cellular imaging system (Clarient, Inc.) and reviewed by a blinded observer. Number of CD31-positive vessels were identified across 5 to 10 randomly chosen fields of equal size at ×100 magnification in viable tumor tissue and calculated as number of vessels per square millimeter for each tumor, averaged for each treatment group, and compared with vehicle-treated controls. Percentage Ki67-positive cells were calculated as the ratio between Ki67-positive cells divided by the total number of cells identified across 5 to 10 randomly chosen fields of equal size in viable tumor tissue. The results for each tumor and treatment group were averaged and compared with vehicle-treated controls. The level of pERK staining was determined as described above and calculated as the ratio of antibody staining divided by the total number of cells identified, averaged for each treatment group, and compared with vehicle-treated controls.
Results are presented as mean±SD or SE as indicated for each graph or table. For IC50 comparison in the A431 cell viability experiment, two sample Student's t tests were applied to determine P values for each IC50 pair assuming that the random fluctuations of replicates around the dose-response curve are distributed [log]normally with the individual replicates used as the ‘sample size’ for the t test (nine point dose response done in triplicate). For statistical analysis of immunohistochemical results from in vivo studies, two-tailed Student's t test analysis and Bonferroni correction were done to identify significant differences compared with vehicle control group (multiple use of a single vehicle control group) with a cumulative minimal requirement of P<0.05.

T3 sequence (P35367 whole entry): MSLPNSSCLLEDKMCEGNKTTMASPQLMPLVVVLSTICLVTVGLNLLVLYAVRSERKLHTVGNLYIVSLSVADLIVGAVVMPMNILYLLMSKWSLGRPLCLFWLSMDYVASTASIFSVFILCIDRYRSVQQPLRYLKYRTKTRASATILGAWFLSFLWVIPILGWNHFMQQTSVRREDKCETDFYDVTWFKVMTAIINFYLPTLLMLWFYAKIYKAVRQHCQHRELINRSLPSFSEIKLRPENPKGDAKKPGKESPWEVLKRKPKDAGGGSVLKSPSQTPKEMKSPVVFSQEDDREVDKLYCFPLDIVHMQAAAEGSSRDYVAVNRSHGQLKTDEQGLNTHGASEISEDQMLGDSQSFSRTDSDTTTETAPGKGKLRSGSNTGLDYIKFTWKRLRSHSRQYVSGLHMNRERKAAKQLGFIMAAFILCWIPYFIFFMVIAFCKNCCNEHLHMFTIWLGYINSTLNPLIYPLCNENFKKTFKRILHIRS
Sequence of EGFR L861Q (pCMV/Lx-1) (P00533 25-1210 L861Q): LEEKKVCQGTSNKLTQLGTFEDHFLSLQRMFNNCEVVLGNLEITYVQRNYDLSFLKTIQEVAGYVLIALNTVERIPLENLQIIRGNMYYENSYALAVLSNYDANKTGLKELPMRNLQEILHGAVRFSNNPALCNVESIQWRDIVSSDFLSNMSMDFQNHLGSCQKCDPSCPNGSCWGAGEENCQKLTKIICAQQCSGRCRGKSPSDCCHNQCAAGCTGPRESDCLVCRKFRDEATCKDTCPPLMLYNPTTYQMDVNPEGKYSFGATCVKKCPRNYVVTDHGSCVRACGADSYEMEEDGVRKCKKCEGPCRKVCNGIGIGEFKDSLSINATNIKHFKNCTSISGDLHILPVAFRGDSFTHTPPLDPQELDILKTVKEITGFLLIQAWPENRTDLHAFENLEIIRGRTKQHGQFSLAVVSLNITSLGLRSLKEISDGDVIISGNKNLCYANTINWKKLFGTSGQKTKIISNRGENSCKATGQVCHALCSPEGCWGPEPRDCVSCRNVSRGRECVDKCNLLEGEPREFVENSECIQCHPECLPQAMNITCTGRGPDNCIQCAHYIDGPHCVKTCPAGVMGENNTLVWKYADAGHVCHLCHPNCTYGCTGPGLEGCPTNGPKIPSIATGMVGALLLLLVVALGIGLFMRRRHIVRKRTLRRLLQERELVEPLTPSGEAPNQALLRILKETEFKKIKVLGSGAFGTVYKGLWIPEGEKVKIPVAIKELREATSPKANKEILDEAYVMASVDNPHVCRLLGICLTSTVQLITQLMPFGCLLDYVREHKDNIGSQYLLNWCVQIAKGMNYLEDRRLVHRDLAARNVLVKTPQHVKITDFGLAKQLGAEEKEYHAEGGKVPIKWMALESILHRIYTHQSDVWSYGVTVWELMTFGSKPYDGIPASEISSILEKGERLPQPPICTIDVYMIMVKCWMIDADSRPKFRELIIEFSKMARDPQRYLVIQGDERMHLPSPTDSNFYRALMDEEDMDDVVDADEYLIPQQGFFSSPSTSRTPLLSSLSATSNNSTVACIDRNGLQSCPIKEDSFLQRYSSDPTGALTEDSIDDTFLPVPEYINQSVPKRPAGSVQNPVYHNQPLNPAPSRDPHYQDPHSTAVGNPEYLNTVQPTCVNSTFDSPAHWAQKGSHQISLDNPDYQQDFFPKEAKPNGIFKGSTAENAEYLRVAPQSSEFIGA
T4 sequence (P32239 whole entry): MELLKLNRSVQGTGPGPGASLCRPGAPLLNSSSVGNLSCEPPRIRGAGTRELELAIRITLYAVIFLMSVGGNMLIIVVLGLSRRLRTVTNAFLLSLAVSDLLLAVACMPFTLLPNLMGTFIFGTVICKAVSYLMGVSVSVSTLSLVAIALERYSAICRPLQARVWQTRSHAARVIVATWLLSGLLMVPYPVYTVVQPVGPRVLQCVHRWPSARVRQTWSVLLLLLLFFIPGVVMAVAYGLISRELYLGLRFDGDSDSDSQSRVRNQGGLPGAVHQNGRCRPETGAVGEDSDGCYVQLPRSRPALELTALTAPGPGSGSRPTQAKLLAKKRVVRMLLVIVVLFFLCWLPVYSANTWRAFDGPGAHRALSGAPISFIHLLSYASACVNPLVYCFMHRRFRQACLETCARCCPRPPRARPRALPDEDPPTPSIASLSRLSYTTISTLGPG
T2 sequence (P19643 whole entry): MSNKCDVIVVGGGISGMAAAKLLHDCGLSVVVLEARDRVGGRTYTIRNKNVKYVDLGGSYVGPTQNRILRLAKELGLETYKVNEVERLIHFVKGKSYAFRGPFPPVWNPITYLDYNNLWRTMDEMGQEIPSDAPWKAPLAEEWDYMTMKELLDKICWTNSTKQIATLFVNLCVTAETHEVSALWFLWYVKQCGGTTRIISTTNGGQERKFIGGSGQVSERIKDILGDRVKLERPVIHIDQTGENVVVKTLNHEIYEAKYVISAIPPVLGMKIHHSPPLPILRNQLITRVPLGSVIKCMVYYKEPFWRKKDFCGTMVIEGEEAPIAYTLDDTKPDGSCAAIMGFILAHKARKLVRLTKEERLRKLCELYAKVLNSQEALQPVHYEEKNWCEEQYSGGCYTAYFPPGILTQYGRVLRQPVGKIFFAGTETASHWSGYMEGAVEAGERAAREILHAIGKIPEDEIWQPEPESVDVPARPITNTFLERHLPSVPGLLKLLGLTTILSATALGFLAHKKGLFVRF

With `COc1cc2c(Nc3ccc(Cl)c(Cl)c3F)ncnc2cc1OC[C@@H]1C[C@@H]2CN(C)C[C@@H]2C1` [XL-647, N-(3,4-dichloro-2-fluorophenyl)-7-({[(3aR,5r,6aS)-2-methyloctahydrocyclopenta[c]pyrrol-5-yl]methyl}oxy)-6-(methyloxy)quinazolin-4-amine] the “interaction with the panel, in words” value [1] was “interact with very few of the pharmacological targets”, the IC50 [2] was 1000 to 2700 nM and the inhibition at 10 µM [3] was 2.03%. For the same compound, the “phosphorylation of ERK, immunoblot” value [4] was “inhibits the phosphorylation of AKT and ERK”, the “phosphorylation of AKT, immunoblot” value [5] was “inhibits the phosphorylation of AKT and ERK” and the inhibition at 10 µM (Histamine, H1) was 59.8%. For the same compound, the inhibition at 10 µM [6] was 17.1%, the “Inhibition, 10 μM XL-647” value (Opiate, Non-selective) was 39.73% and the IC50 (EGFR L861Q (pCMV/Lx-1)) was 10 nM. The protein bound [7] was 93-99%, the “Phospho ERK Thr203/Tyr204 % Cells” value ([8]; 10 mg/kg) was 20 ± 4.3% and the “Phospho ERK Thr203/Tyr204 % Reduction” value ([8]; 10 mg/kg) was 11.8%. The “Phospho ERK Thr203/Tyr204 % Cells” value ([8]; 30 mg/kg) was 13 ± 4.9%, the “Phospho ERK Thr203/Tyr204 % Reduction” value ([8]; 30 mg/kg) was 41.8^a % and the “Phospho ERK Thr203/Tyr204 % Cells” value ([8]; 100 mg/kg) was 10 ± 3.7%. The “Phospho ERK Thr203/Tyr204 % Reduction” value ([8]; 100 mg/kg) was 57.1^a %.
